Data as given in patent US10441681B2, “Materials and methods for nerve grafting” (University of Florida Research Foundation, Inc., priority 2001, dated 2019).

Legend:
CSPG = CSPG neoepitope (Ab1918) immunolabeling of acellular rat sciatic nerve segments treated en bloc; settings: acellular rat sciatic nerve segments bathed en bloc in chondroitinase ABC solution for 16 hours
Description: Adult (180-200 g) female SPRAGUE DAWLEY rats (HARLAN, Indianapolis, Ind.) were used as nerve donors and recipient hosts. Donor rats were anesthetized with halothane and decapitated. Sciatic nerves were exposed through a gluteal muscle-splitting incision and isolated free of underlying fascia. A 15-mm nerve segment was excised rostral to the bifurcation into common peroneal and tibial nerves. The segments were rinsed with cold sterile Ringer's solution, stabilized by pinning the ends to a thin plastic support, and transferred to a cryogenic vial. The vials were submerged in liquid nitrogen for 2 minutes and then transferred to a 37° C. water bath for 2 minutes. This freeze/thaw cycle was repeated, yielding acellular nerve grafts that were then stored in liquid nitrogen. On the day before grafting, the nerve grafts were warmed to room temperature and incubated in 100 μl phosphate buffered saline pH 7.4 (PBS) containing 2 units/ml chondroitinase ABC (SIGMA, St. Louis, Mo.) or in PBS (vehicle) only for 16 hours at 37° C. The grafts were rinsed twice with Ringer's and kept on ice prior to use. The chondroitinase ABC preparation was highly purified and stated by the manufacturer to be essentially free of protease activity.
Axonal regeneration was assessed by GAP-43 immunofluorescence and digital image analysis. […]

rat sciatic nerve = experiment: Axonal regeneration after bilateral sciatic nerve crush injury (axonotmesis); format: in vivo; settings: two days after injury, 1 U in 2 μl injected, n=6
Procedure: All surgical procedures were performed according to Institutional Animal Care and Use Committee (IACUC) approved protocols. Young adult SPRAGUE DAWLEY rats (HARLAN Indianapolis, Ind.) were deeply anesthetized with xylazine (15 mg/kg, i.m.) followed by ketamine-HCl (110 mg/kg, i.p.). Six animals received bilateral nerve crush injuries. Sciatic nerves were exposed and then crushed with firm pressure for thirty seconds with a DUMONT #5 forceps at a site 4 mm distal to the tendon of the internal obdurator. The crush site was marked with an epineurial suture. In a separate set of experiments, eight rats received bilateral sciatic nerve transection injuries using serrated scissors. The proximal and distal stumps were […] by epineurial neurorrhaphy using 9-0 ETHILON sutures. Fibrin glue (fibrinogen and thrombin) was then applied to stabilize the union. In both injury models, the right sciatic nerves were injected 2-mm distal to the injury with chondroitinase ABC (1 U in 2 μl) (high-purity, protease-free; SIGMA CHEMICAL CO., St. Louis, Miss.). Left sciatic nerves (with the same injury as the right side) were injected with vehicle alone (0.1% bovine serum albumin in PBS). […]
The hypothesis that chondroitinase treatment improves axonal growth through the site of nerve crush injury was tested. […] Regenerating axons were labeled by GAP-43 immunofluorescence and scored by digital image analysis. […]

chondroitinase ABC
CSPG degradation (Ab1918 neoepitope immunostaining) (CSPG): thoroughly degraded CSPG side-chains
axonal regeneration after nerve crush injury (GAP-43 immunoreactivity) (rat sciatic nerve): no significant difference
axonal regeneration after nerve crush injury (GAP-43 immunoreactivity) (rat sciatic nerve; listed as chondroitinase): not significantly effected
